Patent US20170066759A1, “AROMATIC 5-MEMBERED HETEROCYCLIC DERIVATIVE HAVING TRPV4-INHIBITING ACTIVITY” (Shionogi & Co., Ltd., priority 2012, published 2017)

Key:
CYP2C19 = target: T1, CYP2C19 (Homo sapiens, UniProt P33261); test: Test Example 6: CYP inhibition test, mephenytoin 4′-hydroxylation (CYP2C19); type: in vitro ADME; conditions: pooled human hepatic microsome, 50 μmol/L S-mephenytoin
T1 construct: enzyme, pooled human hepatic microsome 0.2 mg protein/mL; from tissue; host or cells: pooled human liver microsomes
Description: (§1) Test Example 6 CYP Inhibition Test […] The reaction conditions were as follows: substrate, 0.5 μmol/L ethoxyresorufin (CYP1A2), 100 μmol/L tolbutamide (CYP2C9), 50 μmol/L S-mephenytoin (CYP2C19), 5 μmol/L dextromethorphan (CYP2D6), 1 μmol/L terfenedine (CYP3A4); reaction time, 15 minutes; reaction temperature, 37° C.; enzyme, pooled human hepatic microsome 0.2 mg protein/mL; concentration of the compound of the present invention, 1, 5, 10, 20 μmol/L (four points). Each five kinds of substrates, human hepatic microsome, and the compound of the present invention in 50 mmol/L Hepes buffer as a reaction solution were added to a 96-well plate at the composition as described above. NADPH, as a cofactor was added to initiate metabolism reactions as markers and, after the incubation at 37° C. for 15 minutes, a methanol/acetonitrile=1/1 (v/v) solution was added to stop the reaction. After the centrifugation at 3000 rpm for 15 minutes, resorufin (CYP1A2 metabolite) in the supernatant was quantified by a fluorescent multilabel counter and toltributamide hydroxide (CYP2[…] metabolite), mephenytoin 4' hydroxide (CYP2C19 metabolite), […], and terfenadine alcohol (CYP3A4 metabolite) were quantified by LC/MS/MS. Addition of only DMSO being a solvent dissolving the compound of the present invention to a reaction system was adopted as a control (100%). Remaining activity (%) was calculated at each concentration of the compound of the present invention added as the solution and IC50 was calculated by reverse presumption by a logistic model using a concentration and an inhibition rate.

CYP1A2 = target: T2, CYP1A2 (Homo sapiens, UniProt P05177); test: Test Example 6: CYP inhibition test, 7-ethoxyresorufin O-deethylation (CYP1A2); type: in vitro ADME; conditions: pooled human hepatic microsome, 0.5 μmol/L ethoxyresorufin
T2 construct: enzyme, pooled human hepatic microsome 0.2 mg protein/mL; from tissue; host or cells: pooled human liver microsomes
T2 sequence (P05177 1-516): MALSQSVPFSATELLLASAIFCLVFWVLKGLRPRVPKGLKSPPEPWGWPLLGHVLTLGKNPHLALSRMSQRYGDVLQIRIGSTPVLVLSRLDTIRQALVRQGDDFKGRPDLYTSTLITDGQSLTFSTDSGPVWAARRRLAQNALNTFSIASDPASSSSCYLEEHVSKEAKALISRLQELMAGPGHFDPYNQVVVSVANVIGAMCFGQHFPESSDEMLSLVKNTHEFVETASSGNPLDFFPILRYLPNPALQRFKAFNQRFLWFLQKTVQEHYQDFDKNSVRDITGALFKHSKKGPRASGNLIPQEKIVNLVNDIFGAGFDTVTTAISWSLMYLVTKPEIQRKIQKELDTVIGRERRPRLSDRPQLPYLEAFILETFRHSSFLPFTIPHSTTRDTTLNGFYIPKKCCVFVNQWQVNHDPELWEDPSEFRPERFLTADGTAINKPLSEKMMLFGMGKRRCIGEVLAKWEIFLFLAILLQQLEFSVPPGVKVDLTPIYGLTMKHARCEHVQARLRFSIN
Description: as §1

CYP3A4 = target: T3, CYP3A4 (Homo sapiens, UniProt P08684); test: Test Example 6: CYP inhibition test, terfenedine hydroxylation (CYP3A4); type: in vitro ADME; conditions: pooled human hepatic microsome, 1 μmol/L terfenedine
T3 construct: enzyme, pooled human hepatic microsome 0.2 mg protein/mL; from tissue; host or cells: pooled human liver microsomes
Description: as §1

[1] = target: T4, human TRPV4 (hTRPV4/CHO cells) (Homo sapiens, UniProt Q9HBA0); test: Test Example 4: TRPV4 inhibitory activity (Ki value), 4α-PDD stimulation, Fluo-3 calcium fluorescence (FDSS 3000); type: cell-based; conditions: Test Example 4, 4α-PDD stimulation, read-out: Test 4 Ki
T4 construct: expressed in transfected cells; host or cells: CHO-K1
Description: TRPV4 Inhibitory Activity (Ki Value)
For each compound, TRPV4 inhibitory activity was measured using cells.
(Method) The procedures of evaluating TRPV4 inhibitory activity of a compound are as follows.
(1) TRPV4 inhibitory activity was measured using CHO-K1 cells stably expressing human TRPV4 (hTRPV4/CHO cells).
(2) Cells were subcultured using the MEM-α medium (SIGMA M4526: 500 ml), FBS (HyCloneSH30070.03: 10%), L-Glutamine 200 mmol/L (GIBCO: 4 mmol/L), P/S (nacalai tesque: 1%), G418 (nacalai tesque: 1 mg/mL).
(3) The 96-well plates which hTRPV4/CHO cells were seeded at densities of 2×10^4 cells/well in the culture medium in the day before the experimental day, and cultured in a CO2 incubator in the presence of 5% CO2 at 37° C. for 24 hours was used as assay plates.
(4) Cells were washed with assay buffer (Hank's Balanced Salt Solution 9.8 g, 1 mol/L HEPES (pH7.5), 250 mmol/L probenecid).
(5) Fluo-3, fluorescent dye for Ca influx assay was added to each well, then the assay plate was incubated in a CO2 incubator in the presence of 5% CO2 at 37° C. for one hour (final conc.; 5 μmol/L Fluo-3).
(6) The assay plate was washed with the assay buffer, and the buffer was remained at 30 μL/well. Then the assay plate was incubated for 10 min at 37° C.
(7) 20 μL of diluted compound solution was added to each well of assay plate, and mixed with built-in Pipette and Mixer of the fluorescence analysis system FDSS 3000 (Hamamatsu Photonics).
(8) 50 μL of 4α-PDD solution (concluding 0.1% Pluronic F-127) was applied to each well of assay plate and mixed.
(9) The fluorescent intensity was measured by FDSS 3000 for 8 min from the point of time addition the compound solution, at Ex 480 nm, Em 540 nm wavelength.
TRPV4 inhibitory activity (Ki value) of a compound was calculated according to the following procedure.
(10) In the presence of the compound, the difference between maximal and minimal of fluorescent intensity value for 8 min from just before addition of 4α-PDD solution was calculated, and it was referred as Max-Min value. Max-Min value of the Ruthenium Red at 10 μM was defined as 100% inhibitory activity, Max-Min value in the absence of the compound was defined as 0% inhibitory activity. TRPV4 inhibitory activity of the compound was calculated by the following formula.
(1−(Max−Min value of the compound−100% inhibitory activity)/(0% inhibitory activity−100% inhibitory activity))×100
(11) By the following formula, inhibitory activity was calculated at 10 points with three fold serial dilution, in the final concentration of the compound from 10 μmol/L to 0.5 nmol/L. The IC50 value was calculated by dose-response curve.
100−[(fluorescent intensity in the presence of the compound−fluorescent intensity of back ground)/(total fluorescent intensity−fluorescent intensity of back ground)]×100
(12) In the presence of the compound, activity of 4α-PDD was measured at 9 points with three fold serial dilution from 20 μmol/L. Activity of 4α-PDD was calculated by the following formula.
(Max−Min value of the each 4α-PDD concentration−0% activity)/(100% activity−0% activity))×100
(13) Effective activity was calculated in 4α-PDD the above. The EC50 value was calculated by dose-response curve.
(14) The Ki value of a compound was calculated by the following formula.
Ki=IC50 value/1+([A]/EC50)
[A]: Concentration of agonist (nmol/L)

CYP2C9 = target: T5, CYP2C9 (Homo sapiens, UniProt P11712); test: Test Example 6: CYP inhibition test, tolbutamide methyl-hydroxylation (CYP2C9); type: in vitro ADME; conditions: pooled human hepatic microsome, 100 μmol/L tolbutamide
T5 construct: enzyme, pooled human hepatic microsome 0.2 mg protein/mL; from tissue; host or cells: pooled human liver microsomes
Description: as §1

CYP2D6 = target: T6, CYP2D6 (Homo sapiens, UniProt P10635); test: Test Example 6: CYP inhibition test, dextromethorphan O-demethylation (CYP2D6); type: in vitro ADME; conditions: pooled human hepatic microsome, 5 μmol/L dextromethorphan
T6 construct: enzyme, pooled human hepatic microsome 0.2 mg protein/mL; from tissue; host or cells: pooled human liver microsomes
Description: as §1

[2] = target: T4, human TRPV4 (hTRPV4/CHO cells); test: Test Example 1: TRPV4 inhibitory activity (IC50 value), 4α-PDD stimulation, Fluo4 calcium fluorescence (FLIPR TETRA); type: cell-based; conditions: Test Example 1, 4α-PDD stimulation, read-out: Test 1 IC50
[3] = Test Example 9: Metabolism stability test; type: in vitro ADME; conditions: human liver microsomes 0.5 mg protein/mL, 30 minutes at 37° C., NADPH, compound concentration 0.5 μmol/L
Description: Metabolism Stability Test
Using a commercially available pooled human hepatic microsomes, a compound of the present invention was reacted for a constant time, a remaining rate was calculated by comparing a reacted sample and an unreacted sample, thereby, a degree of metabolism in liver was assessed.
A reaction was performed (oxidative reaction) at 37° C. for 0 minute or 30 minutes in the presence of 1 mmol/L NADPH in 0.2 mL of a buffer (50 mmol/L Tris-HCl pH 7.4, 150 mmol/L potassium chloride, 10 mmol/L magnesium chloride) containing 0.5 mg protein/mL of human liver microsomes. After the reaction, 50 μL of the reaction mixture was added to 100 μL of a methanol/acetonitrile=1/1 (v/v), mixed and centrifuged at 3000 rpm for 15 minutes. The compound of the present invention in the supernatant was quantified by LC/MS/MS, and a remaining amount of the compound of the present invention after the reaction was calculated, letting a compound amount at 0 minute reaction time to be 100%. Hydrolysis reaction was performed in the absence of NADPH and glucuronidation reaction was in the presence of 5 mmol/L UDP-glucuronic acid in place of NADPH, followed by similar operations.
(Results) Compound concentration: 0.5 μmol/L

[4] = target: T7, CYP3A4 enzyme expressed in Escherichia coli (Homo sapiens, UniProt P08684); test: Test Example 5: CYP3A4 fluorescent MBI test; type: in vitro ADME; conditions: substrate 7-BFC, pre-reaction 30 minutes, compound 0.625-20 μmol/L
T7 construct: host or cells: Escherichia coli
Description: CYP3A4 Fluorescent MBI Test
The CYP3A4 fluorescent MBI test is a test of investigating enhancement of CYP3A4 inhibition of a compound of the present invention by a metabolism reaction, and the test was performed using, as CYP3A4 enzyme expressed in Esherichia coli and employing, as an index, a reaction in which 7-benzyloxytrifluoromethylchmarin (7-BFC) is debenzylated by the CYP3A4 enzyme to produce a metabolite, 7-hydroxytrifluoromethylchmarin (HFC) emitting fluorescent light.
The reaction conditions were as follows: substrate, 5.6 μmol/L 7-BFC; pre-reaction time, […] or 30 minutes; reaction time, 15 minutes; reaction temperature, 25° C. […]
An enzyme in a K-Pi buffer (pH 7.4) and a solution of the compound of the present invention as a pre-reaction solution were added to a 96-well plate at the above composition of the pre-reaction. […] For the plate on which each index reaction had been performed, a fluorescent value of 7-HFC which is a metabolite was measured with a fluorescent plate reader. […]
Addition of only DMSO which is a solvent dissolving the compound of the present invention to a reaction system was adopted as a control (100%). Remaining activity (%) was calculated at each concentration of the compound of the present invention added as the solution, and IC50 was calculated by reverse-presumption by a logistic model using a concentration and an inhibition rate. […]

[5] = Test Example 8: Solubility test; type: physicochemical; conditions: fassgf or other biorelevant, kinetic from dmso stock; 1% DMSO addition, artificial intestinal juice pH 6.8, 16 hours at 25° C.
Description: The solubility of a compound of the present invention was determined under 1% DMSO addition conditions. A 10 mmol/L solution of the compound was prepared with DMSO, and 6 μL of the solution of the compound of the present invention was added to 594 μL of an artificial intestinal juice (water and 118 mL of 0.2 mol/L NaOH reagent were added to 250 mL of 0.2 mol/L potassium dihydrogen phosphate reagent to reach 1000 mL) with a pH of 6.8. The mixture was left standing for 16 hours at 25° C., and the mixture was vacuum-filtered. The filtrate was two-fold diluted with methanol/water=1/1 (V/V), and the compound concentration in the filtrate was measured with HPLC or LC/MS/MS by the absolute calibration method.

T3 sequence (P08684 whole entry): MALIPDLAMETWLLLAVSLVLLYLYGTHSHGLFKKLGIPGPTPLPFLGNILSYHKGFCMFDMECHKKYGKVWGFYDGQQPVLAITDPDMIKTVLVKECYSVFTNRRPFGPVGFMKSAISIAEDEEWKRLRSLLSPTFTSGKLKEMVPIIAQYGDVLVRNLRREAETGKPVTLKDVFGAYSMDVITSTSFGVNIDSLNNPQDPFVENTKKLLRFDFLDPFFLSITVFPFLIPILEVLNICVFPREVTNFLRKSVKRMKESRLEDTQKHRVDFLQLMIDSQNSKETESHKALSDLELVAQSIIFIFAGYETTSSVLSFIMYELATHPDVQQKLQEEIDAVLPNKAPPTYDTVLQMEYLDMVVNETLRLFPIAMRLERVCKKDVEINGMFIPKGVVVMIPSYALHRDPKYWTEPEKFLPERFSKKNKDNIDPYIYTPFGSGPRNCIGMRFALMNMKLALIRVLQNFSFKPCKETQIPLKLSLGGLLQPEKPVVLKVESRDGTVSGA
T6 sequence (P10635 whole entry): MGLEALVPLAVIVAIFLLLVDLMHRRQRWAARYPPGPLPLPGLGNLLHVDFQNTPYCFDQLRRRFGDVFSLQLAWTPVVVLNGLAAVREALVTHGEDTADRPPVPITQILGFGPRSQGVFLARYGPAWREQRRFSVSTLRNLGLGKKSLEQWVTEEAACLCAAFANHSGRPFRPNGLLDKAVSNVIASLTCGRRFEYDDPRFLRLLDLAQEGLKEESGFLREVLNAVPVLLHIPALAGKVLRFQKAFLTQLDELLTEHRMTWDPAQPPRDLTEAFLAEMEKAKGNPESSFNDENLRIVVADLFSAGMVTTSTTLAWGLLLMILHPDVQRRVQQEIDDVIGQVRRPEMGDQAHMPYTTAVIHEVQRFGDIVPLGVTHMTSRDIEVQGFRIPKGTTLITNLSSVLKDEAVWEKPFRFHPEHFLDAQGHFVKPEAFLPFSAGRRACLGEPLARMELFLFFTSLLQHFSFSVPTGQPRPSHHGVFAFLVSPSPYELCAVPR
T5 sequence (P11712 whole entry): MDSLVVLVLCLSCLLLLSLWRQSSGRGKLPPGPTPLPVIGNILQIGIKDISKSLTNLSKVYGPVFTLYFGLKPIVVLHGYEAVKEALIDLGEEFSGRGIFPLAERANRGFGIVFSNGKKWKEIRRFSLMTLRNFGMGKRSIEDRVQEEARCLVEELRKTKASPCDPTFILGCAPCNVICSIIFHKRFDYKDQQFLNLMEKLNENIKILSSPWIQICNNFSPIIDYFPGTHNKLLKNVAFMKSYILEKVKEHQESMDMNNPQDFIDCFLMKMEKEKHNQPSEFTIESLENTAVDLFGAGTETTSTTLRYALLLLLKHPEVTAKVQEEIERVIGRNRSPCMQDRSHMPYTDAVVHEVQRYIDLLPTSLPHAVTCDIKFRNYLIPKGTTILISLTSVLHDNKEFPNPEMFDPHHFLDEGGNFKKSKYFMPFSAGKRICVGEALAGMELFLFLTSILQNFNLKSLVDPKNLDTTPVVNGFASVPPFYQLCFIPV
T4 sequence (Q9HBA0 whole entry): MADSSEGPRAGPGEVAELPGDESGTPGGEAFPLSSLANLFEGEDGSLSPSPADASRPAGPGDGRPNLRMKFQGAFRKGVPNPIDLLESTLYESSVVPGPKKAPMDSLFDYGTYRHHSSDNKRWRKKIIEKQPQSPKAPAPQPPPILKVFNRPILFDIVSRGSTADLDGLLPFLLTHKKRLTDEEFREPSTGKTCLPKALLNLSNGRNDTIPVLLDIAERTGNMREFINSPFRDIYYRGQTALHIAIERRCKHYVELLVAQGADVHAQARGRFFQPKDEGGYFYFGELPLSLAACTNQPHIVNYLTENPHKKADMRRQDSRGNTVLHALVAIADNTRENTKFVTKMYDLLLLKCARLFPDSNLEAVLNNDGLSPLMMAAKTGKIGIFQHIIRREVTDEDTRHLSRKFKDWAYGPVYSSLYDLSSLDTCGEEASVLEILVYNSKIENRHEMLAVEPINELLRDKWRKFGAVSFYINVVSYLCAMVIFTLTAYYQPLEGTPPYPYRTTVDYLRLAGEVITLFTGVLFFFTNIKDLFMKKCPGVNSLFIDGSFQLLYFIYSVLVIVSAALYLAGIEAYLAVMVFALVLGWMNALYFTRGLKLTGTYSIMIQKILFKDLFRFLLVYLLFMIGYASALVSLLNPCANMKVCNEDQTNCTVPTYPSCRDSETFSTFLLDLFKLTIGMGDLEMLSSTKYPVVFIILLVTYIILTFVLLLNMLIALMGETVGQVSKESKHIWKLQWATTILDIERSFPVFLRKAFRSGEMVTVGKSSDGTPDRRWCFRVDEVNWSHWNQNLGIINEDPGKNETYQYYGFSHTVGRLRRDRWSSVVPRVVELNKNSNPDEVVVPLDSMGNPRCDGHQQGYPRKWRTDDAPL
T1 sequence (P33261 whole entry): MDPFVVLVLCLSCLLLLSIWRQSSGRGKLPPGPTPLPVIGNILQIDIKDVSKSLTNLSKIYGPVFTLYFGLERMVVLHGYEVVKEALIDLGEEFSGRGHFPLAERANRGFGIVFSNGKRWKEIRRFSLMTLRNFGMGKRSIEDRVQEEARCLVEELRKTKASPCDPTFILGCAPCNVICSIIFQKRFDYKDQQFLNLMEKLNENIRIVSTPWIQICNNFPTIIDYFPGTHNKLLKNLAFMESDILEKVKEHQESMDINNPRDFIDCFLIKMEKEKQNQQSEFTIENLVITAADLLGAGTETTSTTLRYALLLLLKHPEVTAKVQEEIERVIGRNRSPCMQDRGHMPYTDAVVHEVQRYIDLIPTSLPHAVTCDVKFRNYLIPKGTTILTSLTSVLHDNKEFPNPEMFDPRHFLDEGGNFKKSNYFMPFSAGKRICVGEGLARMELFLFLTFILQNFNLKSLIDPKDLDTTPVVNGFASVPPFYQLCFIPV
T7 sequence (P08684 whole entry): as the sequence (P08684 whole entry) above

Row | Compound | IC50 (CYP2C19) [µM] | IC50 (CYP1A2) [µM] | IC50 (CYP3A4) [µM] | Ki [1] [µM] | IC50 (CYP2C9) [µM] | IC50 (CYP2D6) [µM] | IC50 [2] [µM] | Metabolism stability: remaining amount of the compound after the reaction [3] [%] | CYP3A4 fluorescent MBI test: difference between IC50 values without and with preincubation [4] | solubility at 16 h [5] [µM]
1 | Cc1nc(C)c(-c2csc(NC(=O)[C@@H]3CCC(=O)N3)n2)s1 [Compound I-42] | > 20 | > 20 | > 20 | 1 to 3 | > 20 | > 20 |  |  |  | 
2 | Cc1nc(C)c(-c2csc(NC(=O)Cn3cc(Cl)cn3)n2)s1 [Compound I-116] | > 20 | > 20 | > 20 |  | > 20 | > 20 | 1 to 8 |  |  | 
3 | Cc1nc(CO)sc1-c1csc(NC(=O)C2CCC(F)(F)C2)n1 (stereo not drawn) [Compound I-95] | > 20 | > 20 | > 20 |  | > 20 | > 20 | 0.1 to 1 | 99.4 |  | 
4 | Cc1nc(C(=O)NO)sc1-c1csc(NC(=O)Cc2c(F)cccc2F)n1 [Compound I-107] | > 20 | > 20 | > 20 |  | > 20 | > 20 | 0.1 to 1 |  | (−) (when the difference is 3 μM or less, this was defined as (−)) | 
5 | Cc1nc(CN(C)C)sc1-c1csc(NC(=O)Cc2c(F)cccc2F)n1 [Compound I-81] |  |  |  |  |  |  | 1 to 8 |  |  | > 50
6 | Cc1nc(C)c(-c2csc(NS(=O)(=O)Cc3ccccc3)n2)s1 [II-1] |  |  |  | 1 to 3 |  |  |  |  |  | > 50
